The text below walks through data of patent US11013235B2 (priority 2015, dated 2021).

Where two headings read alike, the source gives them in different places.

Common to all, as to format: in vivo
Assay [1] has as its system Candidatus 'Liberibacter asiaticus'. Particulars: spraying every 15 days, 12 months after treatment, Citrus sinensis with HLB.
For assay [2] the test system is unchanged. The following applies: 1 μM spray, during 6 months, diseased citrus plants.
A further assay deals with Radopholus similis. Put plainly: Nematode control, nodules per plant: Radopholus similis. The following applies: 1 μM foliar application every 5 days, evaluation 35 days after, control 45. An outline of the steps:
(§1)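 Each compound was dissolved in ethanol, then diluted with water to 1 μM. Only the leaves were sprayed, with applications repeated every 5 days on ten plants per treatment. After 35 days, nodules per plant were quantified.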

The test system of assay [3] is Rhizoctonia solani. Put plainly: Control of Rhizoctonia solani disease in tobacco (Rs-Nt). Particulars: 1 μM spraying every 24 hours for one week, water control 87.
Another assay has as its system Meloidogyne incognita. Put plainly: Nematode control, nodules per plant: Meloidogyne incognita. Particulars: 1 μM foliar application every 5 days, evaluation 35 days after, control 34. The gist of the method: as §1
Assay [4] has as its system Botrytis cinerea. The experiment in a line: Control of Botrytis cinerea disease in Arabidopsis (Bc-At). The following applies: 1 μM spraying every 24 hours for one week, water control 8.7. An outline of the steps: (§2)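 Post-inoculation foliar spray, 1 μM, q24h × 1 wk; n = 50 plants/treatment; water control. Endpoints: mortality rate (Nocardia), % symptomatic leaves (Alternaria), lesion diameter (Botrytis).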

The test system of the next assay is Nocardia sp. The experiment in a line: Control of Nocardia sp disease in tobacco (N-Nt). Particulars: 1 μM spraying every 24 hours for one week, water control 58. The gist of the method: as §2
For assay [5], the system named is Botrytis cinerea. The experiment in a line: Control of Botrytis cinerea disease in tomato (Bc-SI). The following applies: 1 μM spraying every 24 hours for one week, water control 7.4. An outline of the steps:
as §2

The test system of another assay is Pratylenchus coffeae. Put plainly: Nematode control, nodules per plant: Pratylenchus coffeae. The following applies: 1 μM foliar application every 5 days, evaluation 35 days after, control 42. The gist of the method: as §1
The next assay deals with Alternaria solani. Put plainly: Control of Alternaria solani disease in tomato (As-SI). Particulars: 1 μM spraying every 24 hours for one week, water control 68. The gist of the method: as §2
Assay [6] deals with Rhizoctonia solani. The experiment in a line: Control of Rhizoctonia solani disease in tomato (Rs-SI). Particulars: 1 μM spraying every 24 hours for one week, water control 96.
A further assay relates to Phytophthora parasitica. Put plainly: Control of Phytophthora parasitica disease in tobacco (Pp-Nt). The following applies: 1 μM spraying every 24 hours for one week, water control 91.
Assay [7] concerns Botrytis cinerea. The experiment in a line: Control of Botrytis cinerea disease in tobacco (Bc-Nt). The following applies: 1 μM spraying every 24 hours for one week, water control 6.7. The gist of the method:
as §2

On to `O=C(CCc1cc2cc3c(-c4ccccc4)coc3cc2oc1=O)NCC(O)CO` (centres unmarked) [IB, N-(2,3-dihydroxypropyl)-3-{2-oxo-6-phenyl-2H-furo[3,2-g]chromen-3-yl}propanamide], for which the “Titers of the bacterium” value is listed as 598 copies per reaction in [1] (0.001 μM); 15 copies per reaction in assay [1] (0.01 μM); 0 copies per reaction in assay [1] (1 μM); 98 copies per reaction in [1] (5 μM); 9751 copies per reaction in assay [1] (10 μM). The “Levels of the bacterium, application once a month compared to twice a month” value in [2] is given as “reduced significantly”. For the same molecule, the Bacterial reduction entry in assay [2] (once and twice a month) is “bacterial reduction was observed in both tested variants”. The “Rs: number of nodules per plant” value in the assay with Radopholus similis came to 24. For the same molecule, the “Rs-Nt: percentage of mortality” value in the assay on Rhizoctonia solani [3] amounted to 3%. Besides, in the assay on Meloidogyne incognita, the “Mi: number of nodules per plant” value is recorded as 3. For the same molecule, the “Bc-At: mean of the diameter of the lesion” value (shortened to “Bc-At: mean”) in the assay with Botrytis cinerea [4] is 1.1 mm. The “N-Nt: percentage of mortality” value in the assay with Nocardia sp is given as 1%. The “Bc-SI: mean of the diameter of the lesion” value (“Bc-SI: mean” below) in the assay on Botrytis cinerea [5] turned out to be 1.6 mm. The “Pc: number of nodules per plant” value in the assay with Pratylenchus coffeae amounted to 13. For the same molecule, the “As-SI: percentage of leaves with the disease symptoms” value (from here on “As-SI: percentage of leaves”) with Alternaria solani turned out to be 2%. The “Rs-SI: percentage of mortality” value in the assay with Rhizoctonia solani [6] was found to be 2%. Also, the “Pp-Nt: percentage of mortality” value in the assay with Phytophthora parasitica was determined as 2%. Further, the “Bc-Nt: mean of the diameter of the lesion” value (shortened to “Bc-Nt: mean”) in the assay on Botrytis cinerea [7] amounted to 2.0 mm.

As for `CN1c2cc(C(=O)NC3CCCCC3)ccc2OCC1CC(=O)NC(CO)CO` (centres unmarked) [VF, N-cyclohexyl-3-{[(1,3-dihydroxypropan-2-yl)carbamoyl]methyl}-4-methyl-3,4-dihydro-2H-1,4-benzoxazine-6-carboxamide], the “Titers of the bacterium” value in assay [1] (0.001 μM) is 985 copies per reaction; in assay [1] (0.01 μM), 1 copies per reaction; in assay [1] (1 μM), 0 copies per reaction; in assay [1] (5 μM), 98 copies per reaction; in assay [1] (10 μM) it was 2365 copies per reaction. For the same molecule, the “Rs: number of nodules per plant” value in the assay on Radopholus similis came out at 1. In the assay on Rhizoctonia solani [3], the “Rs-Nt: percentage of mortality” value came to 2%. Moreover, the “Mi: number of nodules per plant” value in the assay with Meloidogyne incognita came out at 2. The “Bc-At: mean” value in the assay with Botrytis cinerea [4] is given as 1.5 mm. In addition, the “N-Nt: percentage of mortality” value in the assay on Nocardia sp was 1%. Besides, the “Bc-SI: mean” value with Botrytis cinerea [5] came to 2.5 mm. The “Pc: number of nodules per plant” value with Pratylenchus coffeae worked out at 1. In addition, in the assay on Alternaria solani, the “As-SI: percentage of leaves” value was 1%. The “Rs-SI: percentage of mortality” value with Rhizoctonia solani [6] is recorded as 3%. Further, the “Pp-Nt: percentage of mortality” value in the assay with Phytophthora parasitica was determined as 1%. For the same molecule, the “Bc-Nt: mean” value with Botrytis cinerea [7] is recorded as 1.5 mm.

With `O=C(CC1COc2ccc(C(=O)NC3CCCC3)cc2N1)NC(CO)CO` (centres unmarked) [VG, N-cyclopentyl-3-{[(1,3-dihydroxypropan-2-yl)carbamoyl]methyl}-3,4-dihydro-2H-1,4-benzoxazine-6-carboxamide], the “Titers of the bacterium” value was 657 copies per reaction in assay [1] (0.001 μM); 8 copies per reaction in assay [1] (0.01 μM); 0 copies per reaction in assay [1] (1 μM); 67 copies per reaction in assay [1] (5 μM); 3654 copies per reaction in assay [1] (10 μM). Also, in the assay on Radopholus similis, the “Rs: number of nodules per plant” value turned out to be 1. The “Rs-Nt: percentage of mortality” value with Rhizoctonia solani [3] came to 2%. Besides, in the assay with Meloidogyne incognita, the “Mi: number of nodules per plant” value turned out to be 2. Also, the “Bc-At: mean” value in the assay with Botrytis cinerea [4] is listed as 2.4 mm. Also, the “N-Nt: percentage of mortality” value with Nocardia sp is 1%. Besides, the “Bc-SI: mean” value in the assay on Botrytis cinerea [5] was found to be 0.8 mm. In the assay with Pratylenchus coffeae, the “Pc: number of nodules per plant” value stood at 1. Besides, the “As-SI: percentage of leaves” value with Alternaria solani came out at 1%. The “Rs-SI: percentage of mortality” value in the assay on Rhizoctonia solani [6] is recorded as 3%. The “Pp-Nt: percentage of mortality” value in the assay with Phytophthora parasitica turned out to be 1%. Further, the “Bc-Nt: mean” value with Botrytis cinerea [7] is reported as 1.5 mm.

On to `CN1c2cc(C(=O)NC3CCCC3)ccc2OCC1CC(=O)NC(CO)CO` (centres unmarked) [VH, N-cyclopentyl-3-{[(1,3-dihydroxypropan-2-yl)carbamoyl]methyl}-4-methyl-3,4-dihydro-2H-1,4-benzoxazine-6-carboxamide], for which the “Titers of the bacterium” value in assay [1] (0.001 μM) was 658 copies per reaction; in [1] (0.01 μM) it was 4 copies per reaction; in [1] (1 μM) it was 0 copies per reaction; in assay [1] (5 μM), 68 copies per reaction; in assay [1] (10 μM), 6541 copies per reaction. In the assay on Radopholus similis, the “Rs: number of nodules per plant” value came out at 2. The “Rs-Nt: percentage of mortality” value in the assay with Rhizoctonia solani [3] is given as 3%. In the assay with Meloidogyne incognita, the “Mi: number of nodules per plant” value stood at 3. Also, in the assay on Botrytis cinerea [4], the “Bc-At: mean” value was 0.7 mm. Moreover, the “N-Nt: percentage of mortality” value with Nocardia sp is on record as 1%. The “Bc-SI: mean” value in the assay on Botrytis cinerea [5] came to 1.2 mm. Also, the “Pc: number of nodules per plant” value in the assay with Pratylenchus coffeae was 1. The “As-SI: percentage of leaves” value in the assay with Alternaria solani was 2%. The “Rs-SI: percentage of mortality” value in the assay on Rhizoctonia solani [6] is 2%. Further, the “Pp-Nt: percentage of mortality” value with Phytophthora parasitica was found to be 2%. The “Bc-Nt: mean” value in the assay on Botrytis cinerea [7] stood at 0.9 mm.

With `CN1c2cc(C(N)=O)ccc2OCC1CC(=O)NC(CO)CO` (centres unmarked) [VJ, 3-{[(1,3-dihydroxypropan-2-yl)carbamoyl]methyl}-4-methyl-3,4-dihydro-2H-1,4-benzoxazine-6-carboxamide], the “Titers of the bacterium” value in assay [1] (0.001 μM) worked out at 456 copies per reaction; in assay [1] (0.01 μM), 0 copies per reaction; in assay [1] (1 μM), 0 copies per reaction; in assay [1] (5 μM), 56 copies per reaction; in assay [1] (10 μM), 1351 copies per reaction. For the same molecule, the “Rs: number of nodules per plant” value in the assay on Radopholus similis amounted to 0. Further, the “Rs-Nt: percentage of mortality” value with Rhizoctonia solani [3] amounted to 0%. Also, the “Mi: number of nodules per plant” value in the assay with Meloidogyne incognita worked out at 0. The “Bc-At: mean” value in the assay with Botrytis cinerea [4] is 1.2 mm. Also, in the assay on Nocardia sp, the “N-Nt: percentage of mortality” value came out at 1%. Also, the “Bc-SI: mean” value with Botrytis cinerea [5] was 0.8 mm. For the same molecule, the “Pc: number of nodules per plant” value in the assay on Pratylenchus coffeae worked out at 14. The “As-SI: percentage of leaves” value with Alternaria solani stood at 8%. In addition, the “Rs-SI: percentage of mortality” value in the assay on Rhizoctonia solani [6] was found to be 2%. The “Pp-Nt: percentage of mortality” value in the assay on Phytophthora parasitica was 0%. In addition, the “Bc-Nt: mean” value in the assay on Botrytis cinerea [7] is given as 0.3 mm.

With `O=C(CC1COc2ccc(C(=O)Nn3cccc3)cc2N1)NC(CO)CO` (centres unmarked) [VK, 3-{[(1,3-dihydroxypropan-2-yl)carbamoyl]methyl}-N-(1H-pyrrol-1-yl)-3,4-dihydro-2H-1,4-benzoxazine-6-carboxamide], the “Titers of the bacterium” value in assay [1] (0.001 μM) was found to be 435 copies per reaction; in [1] (0.01 μM) it was 0 copies per reaction; in assay [1] (1 μM) it was 0 copies per reaction; in [1] (5 μM) it was 45 copies per reaction; in [1] (10 μM), 2547 copies per reaction. Besides, the “Rs: number of nodules per plant” value in the assay with Radopholus similis came to 0. Also, the “Rs-Nt: percentage of mortality” value with Rhizoctonia solani [3] was found to be 0%. Besides, the “Mi: number of nodules per plant” value in the assay on Meloidogyne incognita is reported as 0. Also, the “Bc-At: mean” value in the assay with Botrytis cinerea [4] was determined as 1.1 mm. Also, the “N-Nt: percentage of mortality” value in the assay with Nocardia sp is recorded as 0%. The “Bc-SI: mean” value with Botrytis cinerea [5] is 1.6 mm. Besides, the “Pc: number of nodules per plant” value in the assay with Pratylenchus coffeae is on record as 0. The “As-SI: percentage of leaves” value in the assay with Alternaria solani came out at 7%. Besides, in the assay on Rhizoctonia solani [6], the “Rs-SI: percentage of mortality” value is listed as 0%. The “Pp-Nt: percentage of mortality” value in the assay on Phytophthora parasitica is listed as 0%. Further, the “Bc-Nt: mean” value with Botrytis cinerea [7] amounted to 2.0 mm.
